Patent US12606540B2, “Triazolone compound” (MEDSHINE DISCOVERY INC., priority 2020, dated 2026)
Where two headings read alike, the source gives them in different places.

Key:
DHODH enzyme = DHODH enzyme (Homo sapiens, UniProt Q02127); test: DHODH enzyme inhibitory activity in vitro (resazurin fluorescence); assay type: biochemical; settings: 5 nM DHODH, 15 μM L-DHO, 80 μM Resazurin
Text: The DHODH inhibitory activity of the compounds was detected by the following experimental method, and the experimental results are as shown in Table 1.
DHODH uses flavin mononucleotide FMN to catalyze the oxidation of dihydrooratic acid DHO to produce oratic acid, while the re-oxidation of FMN requires the participation of coenzyme CoQ. In the experiment of detecting the DHODH enzyme activity, CoQ was replaced by Resazurin dye as the final electron acceptor in the enzyme activity reaction. Resazurin solution is blue, and the resorufin generated after reduction has red fluorescence, and the fluorescence signal can be detected under the 535 nm of excitation wavelength and the 590 nm of emission wavelength. The components of the reaction buffer used in the experiment were 100 mM Hepes pH 7.0, 150 mM NaCl, 0.3% CHAPS, 0.5 mg/mL BSA, 0.1 μM FMN and 1% DMSO. The final concentration of DHODH enzyme in the reaction system was 5 nM, and the final concentration of substrate L-DHO was 15 μM, the final concentration of indicator Resazurin was 80 μM. The components of the reaction stop buffer were 100 mM Hepes pH 7.0 and 5 mM Orotate. The specific method was as follows: 2-fold final concentration of the DHODH enzyme solution was mixed with the compound, incubated at room temperature for 20 min, 2-fold final concentration of the substrate mixture solution of L-DHO and resazurin was added and reacted, incubated at room temperature away from light for 45 min. Then the reaction was stopped by adding 2-fold final concentration of the reaction stop buffer to the reaction system, and incubated at room temperature for 10 min, the fluorescence signal of the reaction system was detected with EnVision under the condition of Ex/Em=535/590 nm.

[1] = tested on: influenza virus A/Weiss/43 (H1N1); test: Influenza virus cytopathic effect (CPE) experiment in MDCK cells; assay type: cell-based; settings: unidentified influenza virus, H1N1, 120 h, 5 days incubation, CCK8
[2] = Pharmacokinetic evaluation in mice (IV and PO); assay type: in vivo, female Balb/c mice; settings: for AUC(0-inf) / AUC(0-t) / clearance / half-life / MRT last / Vd / Tmax / C0 / Cmax: female, Balb/c, mouse, plasma; for MRT last: read-out: MRT0-last; for Vd: read-out: VdSS
Method: Experiment process: 0.04 mg/mL of a clarified solution of the test compound in 5% DMSO/10% Solutol solution/85% water was injected into female Balb/c mice (overnight fasting, 7-9 weeks of age) via tail vein, with dosage of 0.2 mg/kg. 0.1 mg/mL of the test compound in 5% DMSO/10% Solutol solution/0.2% Tween80/84.8% water was administered by gavage to female Balb/c mice (overnight fasting, 7-9 weeks of age), with dosage of 1 mg/kg. About 30 μL of blood was collected from the jugular vein at 0.0833, 0.25, 0.5, 1.0, 2.0, 4.0, 8.0, 10 and 24 h and from the tail vein at 0.25, 0.5, 1.0, 2.0, 4.0, 8.0 and 24 h after administration for both groups of animals, and were placed in anticoagulation tubes with EDTA-K2, and the blood was separated by centrifugation to obtain plasma. Plasma concentrations were detected by LC-MS/MS, and relevant pharmacokinetic parameters were calculated using WinNonlin™ Version 6.3 (Pharsight, Mountain View, CA) pharmacokinetic software with a non-compartmental model linear logarithmic trapezoid method.

MDR1 (P-glycoprotein) = test: Permeability evaluation on MDR1-MDCK II cell line; settings: dog, MDCK-MDR1, pH 7.4
[3] = tested on: human peripheral blood mononuclear cells; test: Proliferation inhibition of peripheral blood mononuclear cells (flow cytometry); assay type: cell-based; settings: PBMC, PHA-M 5 μg/mL stimulation, 48 hours
Method: Flow cytometry was used to detect cell proliferation of human peripheral blood mononuclear cells.
• Cell complete medium: 445 mL of RPMI1640 cell culture+50 mL of fetal bovine serum+5 mL of double antibody • Buffer 1: 9.9 mL of phosphate buffer+0.1 mL of 10% bovine serum protein • Buffer 2: 10 mL of fetal bovine serum+490 mL of phosphate buffer 3.2 Cell Thawing • 3.2.1 20 mL of cell complete medium was added to a 50 mL of centrifuge tube and pre-heated in a 37° C. water bath for 5 minutes; • 3.2.2 the cell cryotubes were removed from the liquid nitrogen storage tank and placed on dry ice for 5-10 minutes to allow the liquid nitrogen to evaporate fully; • 3.2.3 the cell cryotubes were clamped with forceps and placed in the water bath, and shaken gently to thaw the frozen cells quickly; • 3.2.4 the thawed cells were transferred to the pre-heated cell complete medium with a pipette, centrifuged at 350 g for 5 min, then the supernatant was discarded, and the cells was resuspended by adding 10 mL of phosphate buffer; • 3.2.5 counting by cell counter, and cell viability and cell count were recorded. 3.3 Cell Labeling • 3.3.1 Cell proliferation labeling solution (CellTrace™ Violet, 1:1000 dilution) was prepared • 3.3.2 the above mixture was centrifuged at 350 g for 5 minutes, and the supernatant was discarded, then the cells (20×10^6/mL) were resuspended by adding Buffer 1, and the resuspended cells were gently blown by pipette, and an equal volume of cell proliferation labeling solution (prepared in 3.3.1) was added, and gently blown well by pipette; • 3.3.3 incubating in a 5% CO2, 37° C. cell incubator for 18 minutes; • 3.3.4 the 5-fold volume of cell complete medium was added and leaved at room temperature for 5 minutes to terminate the staining reaction; • 3.3.5 the above mixture was centrifuged at 350 g for 5 minutes, and the supernatant was discarded, then the cells were resuspended by adding 10 mL of cell complete medium, counted by cell counter, and cell viability and cell count were recorded; • 3.3.6 the above mixture was centrifuged at 350 g for 5 minutes, and the supernatant was discarded, then the corresponding volume of cell complete medium was added according to the cell counting results, and the density of the resuspended cells was 2×10^6/mL and was to be used. 3.4 Cell Proliferation Stimulation • 3.4.1 50 μL/well prepared cell suspension (1×10^5 cells/well), 50 μL of 4×PHA-M (the final concentration is 5 μg/mL), 50 μL of 4×test compound, 50 μL of cell complete medium were added to the wells of 96-well cell culture plate, and the corresponding control group was set up; (total volume of the reaction system is 200 μL) • 3.4.2 the cell culture plate was placed and incubated in a 5% CO2, 37° C. cell incubator for 48 hours. 3.5 Cell Proliferation Detection • 3.5.1 the above mixture was centrifuged at 350 g for 5 minutes and the supernatant was transferred to a new cell culture plate and stored at −80° C.; • 3.5.2 200 μL of Buffer 2 was add to the wells of the culture plate, and the above mixture was centrifuged at 350 g and the supernatant was discarded; • 3.5.3 cell dead or living staining solution (7-AAD, 1:100 dilution) was prepared with Buffer 2; • 3.5.4 100 μL/well of dead or living staining solution was added, and gently blown and mixed well by pipette, and stained at room temperature for 10 min; • 3.5.5 cell proliferation was detected by flow cytometry analyzer and analyzed by Flowjo software.

Chain of DHODH enzyme (Q02127 whole entry): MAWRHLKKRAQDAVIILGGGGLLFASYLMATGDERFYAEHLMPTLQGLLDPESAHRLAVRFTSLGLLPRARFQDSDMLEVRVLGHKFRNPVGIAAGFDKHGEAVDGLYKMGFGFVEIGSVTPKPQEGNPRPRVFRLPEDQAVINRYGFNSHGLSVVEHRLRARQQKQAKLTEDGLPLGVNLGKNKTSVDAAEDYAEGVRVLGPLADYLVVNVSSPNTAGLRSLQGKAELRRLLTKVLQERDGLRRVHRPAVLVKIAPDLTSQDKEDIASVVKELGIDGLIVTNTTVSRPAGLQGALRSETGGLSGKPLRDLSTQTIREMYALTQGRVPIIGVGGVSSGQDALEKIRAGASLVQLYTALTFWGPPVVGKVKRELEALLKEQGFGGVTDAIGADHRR

Compound: CCn1c(CO)nn(-c2cc(O[C@@H](C)C(F)(F)F)c(/C(F)=C/c3c(F)cccc3Cl)cc2F)c1=O [Compound 1]
- IC50 (DHODH enzyme): 0.71 nM
- EC50 [1]: < 1 nM

Compound: CCn1c(CO)nn(-c2cc(O[C@@H](C)C(F)(F)F)c(/C(F)=C/c3c(F)cncc3Cl)cc2F)c1=O [Compound 2]
- IC50 (DHODH enzyme): 3.9 nM
- EC50 [1]: 20 nM

Compound: CCn1c(CO)nn(-c2cc(O[C@@H](C)C(F)(F)F)c(/C(F)=C/c3cccnc3OC)cc2F)c1=O [Compound 6]
- IC50 (DHODH enzyme): 12.4 nM
- EC50 [1]: 67 nM
- Tlast ([2]; IV 0.2 mg/kg): 24.0 h
- F ([2]; PO 1 mg/kg): 85.4%
- Tlast ([2]; PO 1 mg/kg): 24.0 h
- AUC(0-inf) ([2]; IV 0.2 mg/kg): 2.13 µM·h
- AUC(0-t) ([2]; IV 0.2 mg/kg): 1.96 µM·h
- clearance ([2]; IV 0.2 mg/kg): 3.14 mL/min/kg
- half-life ([2]; IV 0.2 mg/kg): 6.83 h
- MRT last ([2]; IV 0.2 mg/kg): 5.93 h
- Vd ([2]; IV 0.2 mg/kg): 1.53 L/kg
- AUC(0-inf) ([2]; PO 1 mg/kg): 9.08 µM·h
- AUC(0-t) ([2]; PO 1 mg/kg): 7.79 µM·h
- Tmax ([2]; PO 1 mg/kg): 2 h
- half-life ([2]; PO 1 mg/kg): 9.19 h
- MRT last ([2]; PO 1 mg/kg): 7.76 h
- C0 ([2]; IV 0.2 mg/kg): 640 nM
- Cmax ([2]; PO 1 mg/kg): 935 nM
- Papp A→B at 150 min, 2 μM (MDR1 (P-glycoprotein)): 3.72 ×10⁻⁶ cm/s
- Papp B→A at 150 min, 2 μM (MDR1 (P-glycoprotein)): 3.55 ×10⁻⁶ cm/s
- Papp at 150 min, 2 μM (MDR1 (P-glycoprotein)): 1 to 5.5 ×10⁻⁶ cm/s
- efflux ratio at 150 min, 2 μM (MDR1 (P-glycoprotein)): 0.95

Compound: CCn1c(C(=O)O)nn(-c2cc(O[C@@H](C)C(F)(F)F)c(/C(F)=C/c3c(F)cncc3Cl)cc2F)c1=O [Compound 21]
- IC50 (DHODH enzyme): 9 nM

Compound: CCn1c(CO)nn(-c2cc(OC(C)C(F)(F)F)c(C=Cc3ncccc3Cl)cc2F)c1=O (stereo not shown) [Compound 22]
- IC50 (DHODH enzyme): 121 nM

Compound: CCn1c(CO)nn(-c2cc(O[C@@H](C)C(F)(F)F)c(/C=C/c3cccnc3OC)cc2F)c1=O [Compound 23]
- IC50 (DHODH enzyme): 9 nM

Compound: CCn1c(C(=O)O)nn(-c2cc(O[C@@H](C)C(F)(F)F)c(/C(F)=C/c3ncccc3Cl)cc2F)c1=O [Compound 24]
- IC50 (DHODH enzyme): 8 nM

Compound: CCn1c(CO)nn(-c2nc(O[C@@H](C)C(F)(F)F)c(/C(F)=C/c3ncccc3Cl)cc2F)c1=O [Compound 25]
- IC50 (DHODH enzyme): 6 nM
- IC50 [3]: 2 nM

Compound: CCn1c(CO)nn(-c2cc(O[C@@H](C)C(F)(F)F)c(/C(F)=C/c3cccnc3Cl)cc2F)c1=O [Compound 26]
- IC50 (DHODH enzyme): 1.5 nM
- EC50 [1]: 2.4 nM
- IC50 [3]: 4.6 nM
- Tlast ([2]; IV 0.2 mg/kg): 24 h
- F ([2]; PO 1 mg/kg): 80.2%
- AUC(0-inf) ([2]; IV 0.2 mg/kg): 2.86 µM·h
- AUC(0-t) ([2]; IV 0.2 mg/kg): 2.29 µM·h
- clearance ([2]; IV 0.2 mg/kg): 2.32 mL/min/kg
- half-life ([2]; IV 0.2 mg/kg): 9.68 h
- MRT last ([2]; IV 0.2 mg/kg): 8.04 h
- Vd ([2]; IV 0.2 mg/kg): 1.93 L/kg
- AUC(0-inf) ([2]; PO 1 mg/kg): 13 µM·h
- AUC(0-t) ([2]; PO 1 mg/kg): 9.2 µM·h
- Tmax ([2]; PO 1 mg/kg): 1 h
- half-life ([2]; PO 1 mg/kg): 14.8 h
- MRT last ([2]; PO 1 mg/kg): 8.9 h
- C0 ([2]; IV 0.2 mg/kg): 451 nM
- Cmax ([2]; PO 1 mg/kg): 872 nM
- Papp A→B at 150 min, 2 μM (MDR1 (P-glycoprotein)): 8.59 ×10⁻⁶ cm/s
- Papp B→A at 150 min, 2 μM (MDR1 (P-glycoprotein)): 7.76 ×10⁻⁶ cm/s
- Papp at 150 min, 2 μM (MDR1 (P-glycoprotein)): > 5.5 ×10⁻⁶ cm/s
- efflux ratio at 150 min, 2 μM (MDR1 (P-glycoprotein)): 0.9

Compound: CCn1c(CO)nn(-c2cc(O[C@@H](C)C(F)(F)F)c(/C(F)=C/c3cnccc3C)cc2F)c1=O [Compound 27]
- IC50 (DHODH enzyme): 1.5 nM
